In the CheMixHub ionic liquid set:

Assay: xn = mol fraction of the nth substance listed
Settings: 100 kPa; for electrical conductivity: frequency 0.001 MHz

NC(=O)C[C@H](N)C(=O)O + CCCC[N+](CCCC)(CCCC)Cc1ccccc1.[Cl-] + O
Settings	electrical conductivity, 293.15 K [S/m]	electrical conductivity, 298.15 K [S/m]	electrical conductivity, 303.15 K [S/m]	electrical conductivity, 308.15 K [S/m]	electrical conductivity, 313.15 K [S/m]	viscosity, 293.15 K [mPa·s]	viscosity, 298.15 K [mPa·s]	viscosity, 303.15 K [mPa·s]	viscosity, 308.15 K [mPa·s]	viscosity, 313.15 K [mPa·s]
x1 = 0.0001802, x2 = 1.802e-05	0.0457	0.0482	0.0503	0.052	0.0553	0.959	0.919	0.882	–	–
x1 = 0.0001803, x2 = 5.405e-05	0.0516	0.0545	0.0572	0.0607	0.0639	0.967	0.926	0.885	–	–
x1 = 0.0001804, x2 = 9.008e-05	0.0589	0.066	0.0748	0.0813	0.0899	0.978	0.935	0.898	–	–
x1 = 0.0004504, x2 = 1.801e-05	0.0517	0.0574	0.059	0.0615	0.0657	0.965	0.925	0.888	0.851	0.798
x1 = 0.0004507, x2 = 5.403e-05	0.0603	0.0634	0.0663	0.0714	0.0753	0.974	0.932	0.892	0.858	0.802
x1 = 0.000451, x2 = 9.005e-05	0.0728	0.0771	0.0832	0.0889	0.0937	0.985	0.941	0.904	0.862	0.81
x1 = 0.0007205, x2 = 1.801e-05	0.057	0.0653	0.0683	0.0709	0.0773	0.97	0.931	0.894	0.857	0.804
x1 = 0.0007209, x2 = 5.402e-05	0.0678	0.072	0.0765	0.0809	0.0884	0.98	0.938	0.898	0.864	0.809
x1 = 0.0007213, x2 = 9.003e-05	0.0805	0.087	0.0917	0.0967	0.104	0.992	0.947	0.91	0.868	0.817
x1 = 0.0009904, x2 = 1.8e-05	0.0635	0.0749	0.0776	0.0796	0.0859	0.975	0.936	0.899	0.863	0.81
x1 = 0.000991, x2 = 5.4e-05	0.0716	0.0812	0.0854	0.0913	0.0954	0.985	0.943	0.904	0.87	0.815
x1 = 0.0009916, x2 = 9e-05	0.0886	0.0965	0.102	0.104	0.111	0.997	0.952	0.916	0.874	0.825
x1 = 0.00126, x2 = 1.8e-05	0.0698	0.0826	0.0859	0.0888	0.0951	0.98	0.941	0.905	0.869	0.817
x1 = 0.001261, x2 = 5.399e-05	0.0783	0.0903	0.0935	0.0999	0.113	0.99	0.948	0.909	0.877	0.822
x1 = 0.001262, x2 = 8.998e-05	0.102	0.105	0.108	0.112	0.127	1.003	0.958	0.922	0.88	0.831
x1 = 0.00153, x2 = 1.799e-05	0.086	0.092	0.0943	0.0983	0.11	0.984	0.946	0.91	0.875	0.823
x1 = 0.001531, x2 = 5.397e-05	0.0934	0.0997	0.105	0.108	0.115	0.995	0.954	0.915	0.883	0.829
x1 = 0.001532, x2 = 8.995e-05	0.107	0.111	0.116	0.121	0.138	1.008	0.964	0.929	0.887	0.839
